According to US20170027896A1, “METHODS AND COMPOSITIONS FOR THE TREATMENT OF VASCULAR MALFORMATION” (IFOM - FONDAZIONE ISTITUTO FIRC DI ONCOLOGIA MOLECOLARE, priority 2014, published 2017):
“Also recorded” adds a separate entry of the source. Read-outs that look alike come from different tables or passages of the source.

Legend:
[1] = tested on: CCM1 KO endothelial cells; assay: Endothelial cell-to-cell contacts in CCM1 KO endothelial cells in culture; format: cell-based, mouse
[2] = tested on: CCM1 KO endothelial cells; assay: Expression of EndMT markers in CCM1 KO endothelial cells in culture; format: cell-based, mouse
Description: (§1) CCM1-ECKO and CCM2-ECKO have been obtained from CCM1-flox/flox and CCM2-flox/flox mice as described in details above for CCM3-ECKO mice, see also Maddaluno et al, 2013 and Boulday et al, 2011.
(§2) RNA extraction was performed with RNeasy kits (74106; […]). The RNA (1 μg) was reverse transcribed with random hexamers (High Capacity cDNA Archive kits; Applied Biosystems). The cDNA was amplified with TaqMan gene expression assays (Applied Biosystems) using a 7900 HT thermocycler (ABI/Prism). For each sample, the expression levels were determined with the comparative threshold cycle (Ct) method, and normalized to the housekeeping genes encoding 18S and glyceraldehyde-3-phosphate dehydrogenase (GAPDH). For amplification, the following probes (Applied Biosystems) that have been validated to recognize the mouse transcripts in rtPCR were used: Axin2, Nkd1, Lef1, ccnd1, cMyc-Klf4, Ly6a, S100a4, Id1, Cdh2, Acta2, CD44. The probes to identify the CCM3 mRNA transcript were custom designed, as: forward, […] (SEQ ID No. 12); reverse, GCTCTGGCCGCTCAATCA (SEQ ID No. 13); reporter sequence, […] (SEQ ID No. 14).

[3] = tested on: cavernoma lesions in the brain of CCM1-ECKO mice; assay: Cavernoma lesions in the brain of CCM1-ECKO mice; format: in vivo, mouse
Text: as §1

[4] = tested on: CCM3-knockout endothelial cell line; assay: Immunostaining of CCM3-knockout endothelial cell line; format: cell-based, mouse; conditions: 48 h
Description: (§3) In some experiments, endothelial cell lines from the lungs of CCM3-flox/flox mice (8-10 weeks old) were immortalized in culture through retroviral expression of polyoma middle T gene^60. […] These cells were then maintained in culture for up to 25 passages without detectable changes in the effects of this CCM3 ablation.
(§4) Drugs were added to confluent cells for 48 h before the indicated assays. The final concentrations used were: […] (all from Sigma-Aldrich). As all of these were dissolved in DMSO, control treatment (vehicle) was 0.1% DMSO final concentration, as for drug treatment.
Cells cultured in vitro were fixed and stained as described previously^46.
(§5) The following antibodies were used: anti-Pecam (hamster; MAB1398Z, Millipore); anti-b-galactosidase (chicken; ab9361, Abcam); anti-VE-cadherin (rat monoclonal; 550548, BD Biosciences); anti-VE-cadherin (goat; sc-6458, Santa Cruz); anti-active-b-catenin (mouse monoclonal clone 8E7) dephosphorylated on Ser37 and Thr41, Millipore); anti-total-b-catenin (mouse monoclonal; Cell Signaling); anti-S100a4 (rabbit; 07-2274, Millipore); anti-Klf4 (goat; AF3158, R&D); anti-CD44 (rat; 553131, BD Biosciences); anti-ID1 (rabbit; sc-488, Santa Cruz); anti-aSMA (mouse monoclonal; F3777, Sigma); anti-GFP (rabbit; A-6455, Invitrogen); anti-podocalyxin (goat; AF1556, R&D); anti-phospho-histone H3 (rabbit; ab51776, Millipore); anti-CCM3 (rabbit; Eurogentec); anti-p-Smad1 (rabbit; 9516, Cell Signaling); anti-endomucin (rabbit; sc-65495, Santa Cruz); anti-α-tubulin (mouse monoclonal; T9026, Sigma).

cyclooxygenase = conditions: reported; cited from earlier work
CCM3-ECKO mice = assay: Bleeding and mortality in drug-treated CCM3-ECKO mice; conditions: mouse, in vivo
Description: Sulindac sulfide (Sigma) and sulindac sulfone (Sigma) were both dissolved in DMSO and further diluted 1:50 in corn oil. They were administered intragastrically, daily (30 mg/kg body weight), starting one day after the induction of recombination. The control mice were treated in parallel with vehicle only (corn oil plus 2% DMSO).

platelets = conditions: cited from earlier work
[5] = tested on: b-catenin transcription activity in brain endothelial cells of CCM3-ECKO mice; assay: Immunostaining of brain sections of CCM3-ECKO mice (b-gal reporter, progenitor/EndMT markers, VE-cadherin); format: in vivo, mouse; conditions: CCM3-ECKO pups, dpn 9
Text: (§6) The CCM3-flox/flox mice were generated at TaconicArtemis (Koeln, Germany). Two P-lox sequences were inserted that flank exons 4 and 5 of the murine CCM3 gene, to produce a loss-of-function mutation after excision by Ore recombinase. These CCM3-flox/flox mice were bred with Cdh5(PAC)-CreERT2 mice (Wang et al, 2010) for tamoxifen-inducible endothelial-cell-specific expression of Ore-recombinase and CCM3 gene recombination. The CCM3-flox/flox-Cdh5(PAC)-CreERT2 mice were further bred with BAT-gal mice (Maretto et al, 2003) to monitor the activation of b-catenin transcription signaling, and with Rosa 26-Enhanced […] Fluorescent Protein (EYFP) (Rosa26EYFP) mice (Srinivas et al, 2001) to monitor the expression of Ore-recombinase through the expression of EYFP. Tamoxifen (Sigma) was dissolved in corn oil and 10% ethanol (at 10 mg/ml), and then diluted 1:5 in corn oil before single intragastric administration to dpn 1-2 pups (35 mg/kg body weight), as described in^14. The control (wild-type) mice included CCM3-flox/flox-Cdh5(PAC)-CreERT2-BAT-gal mice treated with the vehicle used to dissolve the tamoxifen (corn oil plus 2% ethanol), and CCM3^+/+-Cdh5(PAC)-CreERT2-BAT-gal mice treated with tamoxifen.
(§7) Brains and eyes from mice pups were fixed in 3% paraformaldehyde immediately after dissection, and this fixing was continued overnight at 4° C. The retinas were dissected from the eyes just before staining as the whole mount. Fixed brains were embedded in 4% low-melting-point agarose and sectioned along the sagittal axis ([…]) using a vibratome (1000 Plus, The Vibratome Company, St. Louis, Mo., US).
Brain sections and retinas were stained as floating samples in 12-well and 96-well plates, respectively. They were blocked overnight at 4° C. in 1% fish-skin gelatin with 0.5% Triton X100 and 5% donkey serum in phosphate-buffered saline (PBS) containing 0.01% thimerosal. The samples were incubated overnight at 4° C. with the primary antibodies diluted in 1% fish-skin gelatin with 0.25% Triton X100 in PBS containing 0.01% thimerosal. Following washing with 0.1% Triton X100 in PBS, the secondary antibodies were added for 4 h at room temperature in 1% fish-skin gelatin with 0.25% Triton X100 in PBS containing 0.01% thimerosal. The incubation with DAPI was in PBS for 4 h, which was followed by several washes in PBS, post-fixating with 3% paraformaldehyde for 5 min at room temperature, and further washes in PBS. The brain sections were mounted in Vectashield with DAPI, and the coverslips fixed with nail varnish; the retinas were mounted in Prolong gold with DAPI.
as §5

[6] = tested on: CCM3-knockout endothelial cell line; assay: rtPCR of b-catenin target gene and progenitor/EndMT markers in CCM3-knockout endothelial cell line; format: cell-based, mouse; conditions: 48 h; 135 mM sulindac sulfide, 125 mM sulindac sulfone, 200 mM silibinin, 250 mM salinomycin
Description: as §3, §4, §2

[7] = tested on: vascular lesions in the brain of CCM3-ECKO mice; assay: Assessment of lesion burden in brains of CCM3-ECKO mice; format: in vivo, mouse; conditions: CCM3-ECKO pups dpn 9; 30 mg/kg intragastrically daily; controls 166.8±22 (sulfide study), 153.5±28 (sulfone study)
Text: as §6, §7
For the classification and counting of lesions, entire brains from dpn 9 littermate pups were sectioned and immunostained for Pecam as described above and in the Methods. Sections were then examined under wide-field fluorescence microscopy (10× and 20×). Lesions were classified as described in^63 as mulberry (multiple cavernae, group of more than two contiguous cavernae), single caverna (single dilated vessel with maximal diameter accommodating more than 25 red blood cells), or telangiectases, tortuous small vessels with abnormally dilated lumen). The total numbers of lesions were calculated by summing all of the types of lesions.
As the sections were […], a correction was applied to the number of mulberry lesions, which can span two sections. Therefore, the number of mulberry lesions was divided by […]. The lesions were counted and classified independently by two observers who were blinded to the treatments.
The maximal diameter of the mulberry lesions and single cavernae was used for statistical comparison.

For `CC1=C(CC(=O)O)c2cc(F)ccc2/C1=C\c1ccc(S(C)(=O)=O)cc1` [sulindac sulfone, (Z)-5-Fluoro-2-methyl-1-[4-(methylsulfonyl)benzylidene]indene-3-acetic acid], the “organization of endothelial cell-to-cell contacts” value [1] was “induces re-organization”, the “expression of EndMT markers” value [2] was “inhibits” and the “expression of EndMT markers” value ([2]; listed as exisulind) was “inhibition”. The “formation of cavernoma lesions in the brain” value [3] was “inhibits”, the “nuclear accumulation of active b-catenin / distribution to adherens junctions” value [4] was “inhibited; also recorded: reduced” and the “overexpression of progenitor/EndMT marker proteins (Klf4, S100a4, Id1, CD44)” value [4] was “strongly reduced; also recorded: inhibited”. The anti-cyclooxygenase activity (cyclooxygenase) was “devoid of anti-cyclooxygenase activity”, the “bleeding from vascular lesions or mortality versus vehicle-treated mice” value (CCM3-ECKO mice) was “did not observe either increased bleeding from vascular lesions or mortality” and the anti-platelet activity (platelets) was “lacks anti-platelet activity”. The “VE-cadherin localization at endothelial cell-cell junctions in brain vessels” value [5] was “restored its localization to cell-cell junctions”, the “expression of b-catenin target genes / progenitor and EndMT markers (Klf4, S100a4, Id1) in brain endothelium” value ([5]; immunostaining) was “reduced this nuclear reactivity; also recorded: inhibited” and the “inhibition of transcription of Axin2, Klf4 and S100a4 (rtPCR)” value [6] was “greatest inhibition; also recorded: most effective”. The “mean number (±SD) of vascular lesions per brain” value [7] was 68.6±10.
